In US8741806B2, “Herbicides” (Syngenta Limited, priority 2009, dated 2014) one finds pest or weed control data, which are given here for 15 molecules.

What all share (type): in vivo
In assay [1] the test system is Alopecurus myosuroides (ALOMY). As to the kind of experiment: Example B pre-emergence herbicidal activity, glasshouse pot test. As to conditions: 312 h, rate 250 g/ha, evaluated after 13 days, scale 0-100, read-out: Pre-emergence activity ALOMY (100=total damage to plant; 0=no damage to plant). On the procedure: (§1) Seeds of a variety of test species were sown in standard soil in pots. After cultivation for one day (pre-emergence) or after 8 days cultivation (post-emergence) under controlled conditions in a glasshouse (at 24/16° C., day/night; 14 hours light; 65% humidity), the plants were sprayed with an aqueous spray solution derived from the formulation of the technical active ingredient of formula I in acetone/water (50:50) solution containing 0.5% Tween 20 (polyoxyethelyene sorbitan monolaurate, CAS RN 9005-64-5). The test plants were then grown in a glasshouse under controlled conditions in a glasshouse (at 24/16° C., day/night; 14 hours light; 65% humidity) and watered twice daily. After 13 days for pre and post-emergence, the test was evaluated (100=total damage to plant; 0=no damage to plant). Setaria faberi (SETFA), Lolium perenne (LOLPE), Alopecurus myosuroides (ALOMY), Echinochloa crus-galli (ECHCG), and Avena fatua (AVEFA). Pre-Emergence Activity

In assay [2] the test system is Avena fatua (AVEFA). The assay is described as above. As to conditions: 312 h, rate 250 g/ha, evaluated after 13 days, scale 0-100, read-out: Pre-emergence activity AVEFA (100=total damage to plant; 0=no damage to plant). The procedure:
as §1

Assay [3] has as its system Echinochloa crus-galli (ECHCG). The description is as above. As to conditions: 312 h, rate 250 g/ha, evaluated after 13 days, scale 0-100, read-out: Pre-emergence activity ECHCG (100=total damage to plant; 0=no damage to plant). On the procedure:
as §1

The test system of assay [4] is Lolium perenne (LOLPE). The description is as above. As to conditions: 312 h, rate 250 g/ha, evaluated after 13 days, scale 0-100, read-out: Pre-emergence activity LOLPE (100=total damage to plant; 0=no damage to plant). On the procedure: as §1
Assay [5] deals with Alopecurus myosuroides (ALOMY). The assay can be described thus: Example B post-emergence herbicidal activity, glasshouse pot test. As to conditions: 312 h, rate 250 g/ha, evaluated after 13 days, scale 0-100, read-out: Post-emergence activity ALOMY (100=total damage to plant; 0=no damage to plant). The procedure: as §1, with “Post-Emergence” for “Pre-Emergence”
Assay [6] deals with Avena fatua (AVEFA). The assay is described as above. As to conditions: 312 h, rate 250 g/ha, evaluated after 13 days, scale 0-100, read-out: Post-emergence activity AVEFA (100=total damage to plant; 0=no damage to plant). On the procedure:
as §1, with “Post-Emergence” for “Pre-Emergence”

Assay [7] concerns Echinochloa crus-galli (ECHCG). Described as above. As to conditions: 312 h, rate 250 g/ha, evaluated after 13 days, scale 0-100, read-out: Post-emergence activity ECHCG (100=total damage to plant; 0=no damage to plant). The procedure: as §1, with “Post-Emergence” for “Pre-Emergence”
The test system of assay [8] is Lolium perenne (LOLPE). Described as above. As to conditions: 312 h, rate 250 g/ha, evaluated after 13 days, scale 0-100, read-out: Post-emergence activity LOLPE (100=total damage to plant; 0=no damage to plant). On the procedure:
as §1, with “Post-Emergence” for “Pre-Emergence”

On to `CCc1ccc(-c2ccc(Cl)cc2C)cc1C1=C(O)CC(C)(C)CC1=O` [Compound T21], for which the pest or weed control at 250 g/ha was determined as 0% in assay [1]; 30% in the assay on Avena fatua (AVEFA) [2]; 40% in assay [3]; 50% with Lolium perenne (LOLPE) [4]; 0% in assay [5]; 0% in the assay on Avena fatua (AVEFA) [6]. The pest or weed control at 250 g/ha in assay [7] was 80%; in the assay on Lolium perenne (LOLPE) [8] it was 70%.

Take `CCc1ccc(-c2ccc(Cl)cc2C)cc1C1=C(O)CCCC1=O` [Compound T48]: the pest or weed control at 250 g/ha in assay [1] worked out at 0%; with Avena fatua (AVEFA) [2], 20%; in assay [3], 90%; with Lolium perenne (LOLPE) [4], 80%; in assay [5], 20%; in the assay with Avena fatua (AVEFA) [6] it was 10%. Besides, the pest or weed control at 250 g/ha in assay [7] came out at 100%; in the assay on Lolium perenne (LOLPE) [8] it was 50%.

`CCc1ccc(-c2ccc(Cl)c(F)c2)cc1C1=C(O)C(C)(C)CC(C)(C)C1=O` [Compound T64]: the pest or weed control at 250 g/ha in assay [1] was 30%; with Avena fatua (AVEFA) [2] it was 10%; in assay [3], 70%; in the assay on Lolium perenne (LOLPE) [4], 60%; in assay [5] it was 50%; in the assay with Avena fatua (AVEFA) [6], 80%. The pest or weed control at 250 g/ha came out at 100% in assay [7] and 80% in the assay on Lolium perenne (LOLPE) [8].

On to `CCc1ccc(-c2ccc(Cl)s2)cc1C1=C(O)CCCC1=O` [Compound T55], for which the pest or weed control at 250 g/ha in assay [1] amounted to 20%; with Avena fatua (AVEFA) [2] it was 0%; in assay [3], 40%; in the assay on Lolium perenne (LOLPE) [4], 20%; in assay [5] it was 40%; with Avena fatua (AVEFA) [6] it was 10%. Also, the figures for the pest or weed control at 250 g/ha (in assay [7]; with Lolium perenne (LOLPE) [8]) were 100% and 60%, respectively.

On to `CCc1ccc(-c2ccc(C(F)(F)F)cc2)cc1C1=C(O)CC(C)(C)CC1=O` [Compound T34], for which the pest or weed control at 250 g/ha in assay [1] stood at 20%; in the assay on Avena fatua (AVEFA) [2], 0%; in assay [3], 50%; in the assay with Lolium perenne (LOLPE) [4], 30%; in assay [5], 100%; in the assay on Avena fatua (AVEFA) [6], 100%. The pest or weed control at 250 g/ha (in assay [7]; in the assay with Lolium perenne (LOLPE) [8]) was 100% each time.

Regarding `CCc1ccc(-c2ccc(Cl)c(Cl)c2F)cc1C1=C(O)C(C)(C)CCC1=O` [Compound T17], the pest or weed control at 250 g/ha in assay [1] was 0%; with Avena fatua (AVEFA) [2], 0%; in assay [3], 80%; with Lolium perenne (LOLPE) [4] it was 0%; in assay [5], 0%; in the assay with Avena fatua (AVEFA) [6], 0%. In addition, the figures for the pest or weed control at 250 g/ha (in assay [7]; in the assay with Lolium perenne (LOLPE) [8]) were 90% and 40%, respectively.

As for `CCc1ccc(-c2ccc(Cl)nc2)cc1C1=C(O)CCCC1=O` [Compound T42], the pest or weed control at 250 g/ha came to 0% in assay [1]; 0% with Avena fatua (AVEFA) [2]; 20% in assay [3]; 0% in the assay on Lolium perenne (LOLPE) [4]; 50% in assay [5]; 20% with Avena fatua (AVEFA) [6]. Besides, the figures for the pest or weed control at 250 g/ha (in assay [7]; in the assay on Lolium perenne (LOLPE) [8]) were 100% and 50%, respectively.

With `CCc1ccc(-c2ccc(C(F)(F)F)cc2)cc1C1=C(O)CCCC1=O` [Compound T59], the pest or weed control at 250 g/ha (in assay [1]; in the assay with Avena fatua (AVEFA) [2]; in assay [3]; in the assay with Lolium perenne (LOLPE) [4]; in assay [5]; in the assay with Avena fatua (AVEFA) [6]) was 100% throughout. Besides, the pest or weed control at 250 g/ha (in assay [7]; with Lolium perenne (LOLPE) [8]) was 100% throughout.

As to `CCc1ccc(-c2ccc(Cl)cc2Cl)cc1C1=C(O)CCCC1=O` [Compound T44], the pest or weed control at 250 g/ha came to 0% in assay [1]; 0% in the assay with Avena fatua (AVEFA) [2]; 90% in assay [3]; 80% in the assay with Lolium perenne (LOLPE) [4]; 30% in assay [5]; 0% in the assay with Avena fatua (AVEFA) [6]. The pest or weed control at 250 g/ha worked out at 100% in assay [7] and 80% with Lolium perenne (LOLPE) [8].

In the case of `CCc1ccc(-c2ccc(Cl)cc2Cl)cc1C1=C(O)C(C)(C)CCC1=O` [Compound T18], the pest or weed control at 250 g/ha stood at 30% in assay [1]; 20% in the assay with Avena fatua (AVEFA) [2]; 90% in assay [3]; 80% in the assay with Lolium perenne (LOLPE) [4]; 30% in assay [5]; 40% in the assay with Avena fatua (AVEFA) [6]. In addition, the pest or weed control at 250 g/ha in assay [7] came to 90%; in the assay with Lolium perenne (LOLPE) [8], 80%.

`CCc1ccc(-c2ccc(Cl)cc2C)cc1C1=C(O)C(C)(C)CCC1=O` [Compound T4, 2-(4′-chloro-4-ethyl-2′-methylbiphen-3-yl)-4,4-dimethylcyclohexane-1,3-dione]: the pest or weed control at 250 g/ha in assay [1] came to 20%; in the assay with Avena fatua (AVEFA) [2], 0%; in assay [3] it was 90%; in the assay on Lolium perenne (LOLPE) [4] it was 40%; in assay [5] it was 0%; in the assay on Avena fatua (AVEFA) [6], 0%. Moreover, the pest or weed control at 250 g/ha in assay [7] is 100%; in the assay on Lolium perenne (LOLPE) [8], 50%.

`CCc1ccc(-c2ccc(Cl)c(F)c2Cl)cc1C1=C(O)CC(C)(C)CC1=O` [Compound T29]: the pest or weed control at 250 g/ha in assay [1] came to 40%; in the assay with Avena fatua (AVEFA) [2] it was 0%; in assay [3], 90%; in the assay on Lolium perenne (LOLPE) [4] it was 70%; in assay [5], 40%; in the assay on Avena fatua (AVEFA) [6] it was 30%. Besides, the pest or weed control at 250 g/ha (in assay [7]; in the assay on Lolium perenne (LOLPE) [8]) was 100% throughout.

As to `CCc1ccc(-c2ccc(Cl)c(F)c2)cc1C1=C(O)C(C)(C)CCC1=O` [Compound T10], the pest or weed control at 250 g/ha in assay [1] was 0%; in the assay with Avena fatua (AVEFA) [2], 20%; in assay [3] it was 100%; in the assay with Lolium perenne (LOLPE) [4], 90%; in assay [5], 70%; in the assay with Avena fatua (AVEFA) [6], 90%. Besides, the pest or weed control at 250 g/ha in assay [7] turned out to be 100%; in the assay on Lolium perenne (LOLPE) [8], 90%.

`CCc1ccc(-c2ccc(Cl)c(F)c2F)cc1C1=C(O)CCCC1=O` [Compound T52]: the pest or weed control at 250 g/ha in assay [1] stood at 40%; with Avena fatua (AVEFA) [2], 30%; in assay [3], 100%; with Lolium perenne (LOLPE) [4], 90%; in assay [5], 70%; with Avena fatua (AVEFA) [6], 80%. Also, the pest or weed control at 250 g/ha (in assay [7]; in the assay on Lolium perenne (LOLPE) [8]) was 100% each time.

Turning to `CCc1ccc(-c2cc(Cl)c(Cl)cc2Cl)cc1C1=C(O)CCCC1=O` [Compound T46], the pest or weed control at 250 g/ha in assay [1] came to 0%; in the assay on Avena fatua (AVEFA) [2], 20%; in assay [3] it was 90%; in the assay on Lolium perenne (LOLPE) [4] it was 70%; in assay [5], 0%; in the assay on Avena fatua (AVEFA) [6], 20%. Moreover, the results for the pest or weed control at 250 g/ha (in assay [7]; with Lolium perenne (LOLPE) [8]) were 100% and 70%, respectively.
